Data reported in US7846963B2, “2-oxo-heterocyclic compounds and the pharmaceutical compositions comprising the same” (Korea Research Institute of Bioscience and Biotechnology, priority 2003, dated 2010).

The molecules below were run on production of TNF-alpha in RAW 264.7 cells (assay: Inhibition of TNF-alpha production in LPS-treated RAW 264.7 cells, ELISA of culture supernatant). Settings: Mus musculus, RAW264.7, Table 23, LPS 0.3 μg/ml, 24 hours, compounds up to 10 μM, IC50 unit inferred.
Type: cell-based, mouse
Description: To test the inhibiting activity of the compounds prepared from above Examples on the production of TNF-alpha, the concentration of TNF-alpha in the cell supernatant was measured.
Each 200 μl of RAW 264.7 cells (ATCC, USA), a mouse macrophage cell line was seeded onto each well of 96-well microtiter plate (Nunc, Sweden) to the concentration ranging from 1×10^6 cells/ml to 5×10^6 cells/ml, and incubated in DMEM (Dulbeco's modified eagles medium) media containing 5% FBS (fetal bovine serum) at 37° C. in 5% CO2 incubator.
Various concentrations of the compounds of the present invention ranging from […] to 10 μM and LPS (Sigma, USA) in the final concentration of 0.3 μg/ml were treated to activated cell simultaneously. The treated cells were cultured at 37° C. for 24 hours in 5% CO2 incubator and the cultured cells were collected after the cultivation
And then the concentration of TNF-alpha secreted from the culture supernatant of RAW 264.7 cells was determined by ELISA according to the manufacture's instruction (R&D Systems, Minneapolis, Minn.).
The result was shown in Table 23 (AA: IC50's<1, A: IC50's<5, B: IC50's<10, C: IC50's>10).

IC50 [µM]	Structure (SMILES)
< 5	O=C(CCC1=CCN(Cc2ccc(Cl)cc2)C1=O)NO [Example 13, 3-[1-(4-chloro-benzyl)-2-oxo-2,5-dihydro-1H-pyrrol-3-yl]-N-hydroxy-propionamide]
< 1	O=C(CCC1=CCN(Cc2ccc(Br)cc2)C1=O)NO [Example 12, 3-[1-(4-bromo-benzyl)-2-oxo-2,5-dihydro-1H-pyrrol-3-yl]-N-hydroxy-propionamide]
> 10	CN1CC=C(CCC(=O)NO)C1=O [Example 50, N-hydroxy-3-(1-methyl-2-oxo-2,5-dihydro-1H-pyrrol-3-yl)-propionamide]
< 5	Cc1ccc(CN2CC=C(CCC(=O)NO)C2=O)cc1 [Example 8, N-hydroxy-3-[1-(4-methyl-benzyl)-2-oxo-2,5-dihydro-1H-pyrrol-3-yl]-propionamide]
> 10	O=C(O)CCC1=CCCN(Cc2ccccc2)C1=O [Example 64, 3-(1-benzyl-2-oxo-1,2,5,6-tetrahydro-pyridin-3-yl)-propionic acid]
< 5	O=C(CCC1=CCN(CCCCc2ccccc2)C1=O)NO [Example 5, N-hydroxy-3-[2-oxo-1-(4-phenyl-butyl)-2,5-dihydro-1H-pyrrol-3-yl]-propionamide]
> 10	O=C(O)CCC1=CCCN(Cc2ccc([N+](=O)[O-])cc2)C1=O [Example 65, 3-[1-(4-nitro-benzyl)-2-oxo-1,2,5,6-tetrahydro-pyridin-3-yl)-propionic acid]
< 5	O=C(CCC1=CCCN(CCc2ccccc2)C1=O)NO [Example 60]
< 5	COc1ccc(CN2CCC=C(CCCC(=O)NO)C2=O)cc1 [Example 95, 4-[1-(4-methoxy-benzyl)-2-oxo-1,2,5,6-tetrahydro-pyridin-3-yl]-N-hydroxy-butylamide]
< 1	O=C(CCC1=CCN(CCCc2ccccc2)C1=O)NO [Example 4, N-hydroxy-3-[2-oxo-1-(3-phenyl-propyl)-2,5-dihydro-1H-pyrrol-3-yl]-propionamide]
< 10	COc1ccccc1CN1CC=C(CCC(=O)NO)C1=O [Example 9, N-hydroxy-3-[1-(2-methoxy-benzyl)-2-oxo-2,5-dihydro-1H-pyrrol-3-yl]-propionamide]
> 10	O=C(CCC1=CCN(Cc2ccc(NC(=O)c3ccccc3)cc2)C1=O)NO [Example 18, N-{4-[3-(2-hydroxycarbamoyl-ethyl)-2-oxo-2,5-dihydro-pyrrole-1-yl-methyl]-phenyl}-benzamide]
< 10	O=C(O)CC1=CCCN(CCCCc2ccccc2)C1=O [Example 91, [2-oxo-1-(4-phenyl-butyl)-1,2,5,6-tetrahydro-pyridin-3-yl)-acetic acid]
< 5	O=C(CCC1CCCN(CCc2ccccc2)C1=O)NO (stereo not shown) [Example 81, N-hydroxy-3-(2-oxo-1-phenethyl-piperidine-3-yl)-propionamide]
< 5	O=C(CCC1=CCN(CCc2ccc(Br)cc2)C1=O)NO [Example 35, 3-{1-[2-(4-bromo-phenyl)-ethyl]-2-oxo-2,5-dihydro-1H-pyrrol-3-yl}-N-hydroxy-propionamide]
< 5	O=C(CCC1=CCN(CCCc2ccc(Cl)cc2)C1=O)NO [Example 45, 3-{1-[3-(4-chloro-phenyl)-propyl]-2-oxo-2,5-dihydro-1H-pyrrol-3-yl]-N-hydroxy-propionamide]
< 10	O=C(O)CCC1=CCCNC1=O [Example 99, 3-(2-oxo-1,2,5,6-tetrahydro-pyridin-3-yl)-propionic acid]
> 10	O=C(CC1=CCN(CCCCc2ccccc2)C1=O)NO [Example 23, N-hydroxy-2-[2-oxo-1-(4-phenyl-butyl)-2,5-dihydro-1H-pyrrol-3-yl]-acetamide]
> 10	CC(=O)Nc1ccc(CN2CCC=C(CCC(=O)NO)C2=O)cc1 [Example 74, 3-[1-(4-acetylamino-benzyl)-2-oxo-1,2,5,6-tetrahydro-pyridin-3-yl]-N-hydroxy-propionamide]
< 5	O=C(CCC1=CCN(CCCc2ccc(-c3ccccc3)cc2)C1=O)NO [Example 55, 3-[1-(3-biphenyl-4-yl-propyl)-2-oxo-2,5-dihydro-1H-pyrrol-3-yl]-N-hydroxy-propionamide]
< 1	COc1ccc(CN2CCC=C(CC(=O)O)C2=O)c(OC)c1 [Example 87, [1-(2,4-dimethoxy-benzyl)-2-oxo-1,2,5,6-tetrahydro-pyridin-3-yl]-acetic acid]
< 5	O=C(CCC1=CCN(Cc2ccccc2)C1=O)NO [Example 2, 3-(1-benzyl-2-oxo-2,5-dihydro-1H-pyrrol-3-yl)-N-hydroxy-propionamide]

IC50 [µM]	Structure (SMILES)
> 10	COc1ccc(CN2CC=C(CC(=O)NO)C2=O)c(OC)c1 [Example 21, 2-[1-(2,4-dimethoxy-benzyl)-2-oxo-2,5-dihydro-1H-pyrrol-3-yl]-N-hydroxy-acetamide]
< 5	O=C(CCC1=CCN(CCc2ccccc2F)C1=O)NO [Example 28, 3-{1-[2-(2-fluoro-phenyl)-ethyl]-2-oxo-2,5-dihydro-1H-pyrrol-3-yl}-N-hydroxy-propionamide]
< 5	O=C(CC1CCCN(CCc2ccccc2)C1=O)NO (stereo not shown) [Example 93, (2-oxo-1-phenethyl-piperidine-3-yl)-N-hydroxy-acetamide]
< 1	Cc1ccc(CCCN2CC=C(CCC(=O)NO)C2=O)cc1 [Example 40, N-hydroxy-3-[2-oxo-1-(3-p-tolyl-propyl)-2,5-dihydro-1H-pyrrol-3-yl]-propionamide]
< 1	COc1ccc(CN2CC=C(CCC(=O)NO)C2=O)cc1 [Example 11, N-hydroxy-3-[1-(4-methoxy-benzyl)-2-oxo-2,5-dihydro-1H-pyrrol-3-yl]-propionamide]
> 10	COc1ccc(CN2CCC=C(CCC(=O)O)C2=O)c(OC)c1 [Example 63, 3-[1-(2,4-dimethoxybenzyl)-2-oxo-1,2,5,6-tetrahydro-pyridin-3-yl]-propionic acid]
< 5	O=C(CCC1=CCCNC1=O)NOCc1ccccc1 [Example 100, N-Benzyloxy-3-(2-oxo-1,2,5,6-tetrahydro-pyridin-3-yl)-propionamide]
< 10	COc1ccc(CCCN2CC=C(CCC(=O)NO)C2=O)cc1 [Example 46, N-hydroxy-3-{1-[3-(4-methoxy-phenyl)-propyl]-2-oxo-2,5-dihydro-1H-pyrrol-3-yl]-propionamide]
< 10	COc1ccc(CN2CC=C(CCC(=O)NO)C2=O)c(OC)c1 [Example 1, 3-[1-(2,4-Dimethoxybenzyl)-2-oxo-2,5-dihydro-1H-pyrrol-3-yl]-N-hydroxypropionamide]
< 5	O=C(CCC1=CCN(CCc2ccc(F)cc2)C1=O)NO [Example 30, 3-{1-[2-(4-fluoro-phenyl)-ethyl]-2-oxo-2,5-dihydro-1H-pyrrol-3-yl}-N-hydroxy-propionamide]
< 5	O=C(CC1=CCCN(Cc2ccccc2)C1=O)NO [Example 83, 2-(1-benzyl-2-oxo-1,2,5,6-tetrahydro-pyridin-3-yl)-N-hydroxy-acetamide]
< 5	COc1cccc(CN2CC=C(CCC(=O)NO)C2=O)c1 [Example 10, N-hydroxy-3-[1-(3-methoxy-benzyl)-2-oxo-2,5-dihydro-1H-pyrrol-3-yl]-propionamide]
< 1	O=C(O)CC1=CCCN(Cc2ccccc2)C1=O [Example 88, (1-benzyl-2-oxo-1,2,5,6-tetrahydro-pyridin-3-yl)-acetic acid]
> 10	O=C(CCC1=CCN(CCc2ccccc2[N+](=O)[O-])C1=O)NO [Example 31, N-hydroxy-3-{1-[2-(2-nitro-phenyl)-ethyl]-2-oxo-2,5-dihydro-1H-pyrrol-3-yl}-propionamide]
< 5	O=C(CCC1=CCCN(Cc2ccccc2)C1=O)NO [Example 58, N-hydroxy-3-(1-benzyl-2-oxo-1,2,5,6-tetrahydro-pyridin-3-yl)-propionic acid]
< 5	O=C(CCC1=CCN(CCc2cccs2)C1=O)NO [Example 54, N-hydroxy-3-[2-oxo-1-(2-thiophen-2-yl-ethyl)-2,5-dihydro-1H-pyrrol-3-yl]-propionamide]
> 10	O=C(CCC1=CCCN(Cc2ccc(NC(=O)c3ccccc3)cc2)C1=O)NO [Example 75, N-4-[5-(2-hydroxycarbamoyl-ethyl)-6-oxo-3,6-dihydro-2-pyridin-1-yl-methyl]-phenyl-benzamide]
< 1	O=C(CCC1=CCN(Cc2ccc3ccccc3c2)C1=O)NO [Example 49, N-hydroxy-3-(1-naphthalene-2-ylmethyl-2-oxo-2,5-dihydro-1H-pyrrol-3-yl)-propionamide]
< 1	O=C(CCC1=CCN(CCc2ccc3ccccc3c2)C1=O)NO [Example 53, N-hydroxy-3-[1-(2-naphthalene-2-yl-ethyl)-2-oxo-2,5-dihydro-1H-pyrrol-3-yl]-propionamide]
< 5	O=C(O)CCC1=CCCN(Cc2ccc(NC(=O)c3ccccc3)cc2)C1=O [Example 79, 3-[1-(4-benzoylamino-benzyl)-2-oxo-1,2,5,6-tetrahydro-pyridin-3-yl]-propionic acid]
> 10	O=C(CC1CCN(CCc2ccccc2)C1=O)NO (stereo not shown) [Example 27, N-hydroxy-2-(2-oxo-1-phenethyl-pyrrolidin-3-yl)-acetamide]
